# Literature values as cited in patent US20120289611A1, “PECTIN COMPOUNDS, METHODS OF USING PECTIN COMPOUNDS, AND METHODS OF CONTROLLING WATER SOLUBILITY” (priority 2009, published 2012).
# Entries after “also recorded” stand apart in the source; their conditions may differ. Counter-ions that a name gives are not always drawn.
# Details: in water (where stated)
row,solubility,SMILES
1,0.51 µg/mL,CCC(=O)O[C@]1(C(=O)SCF)[C@H](C)C[C@H]2[C@@H]3C[C@H](F)C4=CC(=O)C=C[C@]4(C)[C@@]3(F)[C@@H](O)C[C@@]21C [Fluticasone propionate]
2,0.97 µg/mL,Cc1c(OCC(F)(F)F)ccnc1C[S+]([O-])c1nc2ccccc2[nH]1 (centres unmarked) [Lansoprazole]
3,0.82 µg/mL,CCCCc1nc(Cl)c(CO)n1Cc1ccc(-c2ccccc2-c2nn[nH]n2)cc1 [Losartan]
4,0.82 µg/mL,CCCCc1nc(Cl)c(CO)n1Cc1ccc(-c2ccccc2-c2nnn[n-]2)cc1.[K+] [potassium losartan]

# Further lines, the molecule ahead of its results:
row,SMILES,solubility
1,COc1ccccc1OCCNCC(O)COc1cccc2[nH]c3ccccc3c12 (centres unmarked) [Carvedilol],0.583 µg/mL
2,CN(C)CCCC1(c2ccc(F)cc2)OCc2cc(C#N)ccc21 (centres unmarked) [Citalopram Hydrobromide],31 µg/mL
3,COC(=O)[C@H](c1ccccc1Cl)N1CCc2sccc2C1 [Clopidogrel bisulphate],50.78 µg/mL

# Same assay, conditions: organic solvent named in the value; hydrochloride
row,SMILES,"solubility in words, other solvents"
1,CCc1ccc(CCOc2ccc(CC3SC(=O)NC3=O)cc2)nc1 (centres unmarked) [Pioglitazone hydrochloride],slightly soluble in anhydrous ethanol; also recorded: very slightly soluble in acetone and acetonitrile; also recorded: insoluble in ether

# Same assay, conditions: water, or solvent not stated
row,solubility in words,SMILES
1,practically insoluble,C[C@@H]1C[C@H]2[C@@H]3CCC4=CC(=O)C=C[C@]4(C)[C@@]3(Cl)[C@@H](O)C[C@]2(C)[C@@]1(OC(=O)c1ccco1)C(=O)CCl [Mometasone furoate]
2,practically insoluble in water,CCc1ccc(CCOc2ccc(CC3SC(=O)NC3=O)cc2)nc1 (centres unmarked) [Pioglitazone hydrochloride]
3,practically insoluble,CCCc1nc2c(C)cc(-c3nc4ccccc4n3C)cc2n1Cc1ccc(-c2ccccc2C(=O)O)cc1 [Telmisartan]
4,sparingly soluble,O=P(O)(O)C(O)(Cn1ccnc1)P(=O)(O)O [Zoledronic acid monohydrate]

# More lines, now with the values behind:
row,SMILES,solubility in words
1,COc1ccc2nc([S@@+]([O-])Cc3ncc(C)c(OC)c3C)[nH]c2c1 [Esomeprazole],very slightly soluble in water
2,Cc1cc2c(s1)Nc1ccccc1N=C2N1CCN(C)CC1 [Olanzapine],practically insoluble in water
